Assay results reported in patent US12268901B2, “Targeting cell tropism receptors to inhibit cytomegalovirus infection” (priority 2017, dated 2025).

Key:
[1] = system: HCMV infection of ARPE19 epithelial cells; assay: Peptide blocking assay, infection of ARPE19 cells (percent GFP or IE positive cells); type: cell-based, Human cytomegalovirus (HCMV); conditions: peptide 1 100 μg/ml
Experimental: (A) Different amounts of peptide 1 were preincubated with TB40E-GFP virus and the mixture applied to ARPE19. Viral DNA levels were quantified by qPCR. (B) The results in (A) are presented as the relative amount of viral DNA relative to the DMSO control. (C) TB40E-GFP virus was preincubated with peptide 1 (100 μg/ml), or DMSO, followed by infection of ARPE19 cells (MOI=2.0). Cells were imaged for GFP expression at 2 dpi (D2) and 7 dpi (D7). (D) TB40E-GFP or BADrUL131-GFP virus, both expressing PC, were preincubated with peptide 1 (100 μg/ml), or DMSO prior to infection of ARPE19 cells (MOI=2.0). Cells were fixed and imaged for GFP at 2 dpi. All data represent the mean of n=3 experiments+/−SD. (E) Culture media supernatants from (C) were harvested on the indicated dpi and assayed for infectious virus by plaque assay. Values indicate the mean percent infected cells of 3 independent experiments±SD. ****p<0.0001.
(§1) FIG. 9. […] TB40E-GFP encoding the viral PC or AD169 lacking PC were preincubated with peptide 1 (100 μg/ml) and then infected on ARPE19 epithelial cells or HEL fibroblasts (MOI=2.0). Cells were fixed, permeabilized, stained for DNA, immunostained for anti-immediate early protein (IE) and imaged. […] Values indicate the mean percentage of infected cells of n=3 experiments±SD. **p<0.01; ***p<0.001.
FIG. 11. Each of the short peptides (aa sequences listed in Table 4; 150 uM), Peptide 1 (32.6 μM), or DMSO alone was preincubated with TB40E virus, followed by infection of ARPE19 cell lines (MOI=2.0). Cells were fixed and imaged for GFP and DNA at 2 dpi. Quantitation data indicating the percent GFP positive cells.
(§2) Live cell images: Phase and GFP signal images were captured on a Zeiss microscope (Zeiss AxioObserver Z1) at 10× magnification. Fixed cell images: cells were washed with PBS (Life Technologies) and fixed with 4% formalin in PBS (Sigma). DNA was stained with Hoechst 33342 dye (Life Technologies). The fixed cells were imaged using an Image Xpress Micro (IXM, Molecular Devices) at 4× magnification. Images were analyzed with MetaXpress imaging software (Molecular Devices) to determine the total cells per well and the percentage of infected cells (GFP positive) in each well. For IE immunostaining: fixed cells were permeabilized with 0.2% Triton X-100 (Sigma) in PBS. Blocking was performed with 1% BSA (Calbiochem, 2930) in PBS with 0.3M glycine (Sigma). Cells were then incubated in antibody targeting the major IE proteins (IE, EMD Millipore, MAB8131) diluted in 1% BSA in PBS. Cells were then incubated in secondary antibody (Texas Red-conjugated goat anti-mouse IgG2A, Southern Biotech, 1080-07) in PBS containing 1% BSA.
At 2 dpi with HCMV TB40E-GFP virus at the indicated MOI, ARPE19 cells were fixed with 4% formaldehyde and nuclei stained with Hoechst 33342. ARPE19 cells were imaged on an automated IXM scanning microscope. Numbers of infected cells were determined by calculating the percent GFP positive cells using MetaXpress software.
The noted synthetic peptides (100 ug/ml each or as described) were mixed with TB40E-GFP virus (1.2×10^6 PFU) and incubated at 37° C. for 2 h by rocking. The resulting samples were then subjected to the virus binding or infection assay.

[2] = system: Akt phosphorylation in ARPE19 cells; assay: PI3/Akt signaling induced by virus binding (immunoblot phospho Akt ser473); type: cell-based; conditions: Peptide 1 100 ug/ml preincubated with virus at 37° C. for 2 h, ARPE19, 30 minutes post infection
Experimental: FIGS. 8A-C. […] (A) Cells were serum starved at 37° C. for overnight and cells were pretreated with DMSO (control), LY294002 (50 uM) in serum-free medium prior to infection for two hours. Plated cells were cooled on ice for 30 mins. Cells were infected by purified TB40E-GFP virus (no serum) at MOI of 2.0 PFU per cell for 2 hours on ice. Cell plates were then shifted to 37° C. incubator (time 0). Cells were harvested at 0, 5, 10 mins post infection. Protein extracts were subjected to immunoblotting with anti-phospho Akt (ser473), Akt or anti-β-actin (loading control). (B) ARPE19 epithelial sgCon and sgOR14I1 knock out cells were serum starved at 37° C. for overnight. Plated cells were cooled on ice for 30 mins. Cells were infected by purified TB40E-GFP virus (no serum) at MOI of 2.0 PFU per cell for 2 hours on ice. Cell plates were then shifted to 37° C. incubator (time 0). Cell were harvested at 0, 5 mins post infection. (C) Peptide 1 (100 ug/ml) was preincubated with TB40E-GFP virus at 37° C. for 2 h and the mixture applied to ARPE19 cells. The phosphorylation of Akt and total Akt were detected 30 minutes post infection of TB40E-GFP.
Cells were serum starved at 37° C. for overnight and cells were pretreated with DMSO (DMSO-carrier control) or LY294002 (50 uM) in serum-free medium prior to infection for two hours. Cell plates were cooled on ice for 30 mins. […]

[3] = system: HCMV infection of HEL fibroblasts; assay: Peptide blocking assay, infection of HEL fibroblasts (percent IE positive cells); type: cell-based, Human cytomegalovirus (HCMV); conditions: peptide 1 100 μg/ml, MOI=2.0
Experimental: as §1
as §2, with “Cells were then incubated in secondary antibody (Texas Red-conjugated goat anti-mouse IgG2A, Southern Biotech, 1080-07) in PBS containing 1% BSA.” left out

## MDNLTKVTEFLLMEFSGIWELQVLHA (N-terminal fragment of OR14I1) [Peptide 1, synthetic peptide representing the N-terminus of OR14I1, position 1-26]
[1]; TB40E-GFP encoding PC or AD169 lacking PC, MOI=2.0
  anti-viral action versus presence of viral PC: dependent on the presence of the PC
[1]; TB40E-GFP or BADrUL131-GFP, MOI=2.0, 2 dpi
  anti-viral action versus viral strain: independent of viral strain
[1]; TB40E-GFP, MOI=2.0
  HCMV infection of ARPE19 epithelial cells (percent IE positive cells): blocks HCMV infection of ARPE19 epithelial cells
[2]
  Akt phosphorylation induced by HCMV infection: abolished
[3]
  PC+ HCMV infection of fibroblasts: modest effect
